This series is described as follows: gradient 5% acetonitrile 3 min, to 50% in 2 min, to 85% in 15 min, held 3 min, 100 µL/min. The settings on record: column: Zorbax Extend-C18 2.1 x 50 mm; eluents: water / acetonitrile, 0.1% formic acid. The essentials: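 Pure standards were run in mixtures of ~100 molecules by HPLC coupled to a quadrupole time-of-flight mass spectrometer. The column was a Zorbax Extend-C18 (2.1 × 50 mm, 1.8 μm) at 100 μL/min, with water and acetonitrile each containing 0.1% formic acid, in positive and negative ionization mode. Dead and dwell volumes were 40 μL and 900 μL. Retention time was taken from computationally picked adduct peaks, each manually inspected, with data collected over 3 months.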
As to `O=C(Nc1cccc(Cl)c1)C1CCc2nc(N3CCOCC3)ncc2C1` (centres undefined), the RP-LC retention time was found to be 838 s.

Regarding `COc1ccc(CC(=O)N2C[C@@H]3C[C@H](NC(=O)c4ccccc4)[C@H]2C3)cc1`, the RP-LC retention time came out at 725 s.

Regarding `Cc1nn(C)cc1CNC(=O)c1cnn2c(C(F)F)cc(-c3ccccc3)nc12`, the RP-LC retention time worked out at 786 s.

Consider `CC(C)c1ccc(NC(=O)CC2=C3CCCCC3N(C(C)C)C2=O)cc1` (centres undefined), for which the RP-LC retention time is 1070 s.

As for `O=C(CN1c2ccc(F)cc2-c2ccccc2S1(=O)=O)N1CCCCCC1`, the RP-LC retention time worked out at 958 s.

Turning to `O=C(Cn1cc2c(n1)CCCC2)N1CCC(Cc2ccccc2)CC1`, the RP-LC retention time came out at 965 s.

`Cc1ccc(C2CCCN2C(=O)Cc2ccsc2)cc1` (centres undefined) displayed an RP-LC retention time of 632 s.

For `O=C(c1cccc2[nH]ccc12)N1CCCC1c1nc(-c2cccc(Cl)c2)no1` (centres undefined), the RP-LC retention time turned out to be 993 s.

In turn, `O=C(Cc1ccc(Cl)cc1)N1CCN(c2cc(-c3cccnc3)[nH]n2)CC1` returned an RP-LC retention time of 636 s.

The molecule `CCOC(=O)c1ccccc1NC(=O)N1CCN(c2ccc(=O)n(-c3ccccc3)n2)CC1` registered an RP-LC retention time of 995 s.

For the molecule `O=C(c1c2c(nc3ccccc13)C(=O)N(C1CCCCC1)C2)N1CCN(c2ccccn2)CC1`, the RP-LC retention time stood at 643 s.

`Cc1ccc2c(=O)c(C(=O)N3CCC(C)CC3)cn(CC(=O)NC3CCCCC3)c2n1` came in with an RP-LC retention time of 762 s.

For `CCOc1ccccc1-c1noc(Cn2c(=O)n(C(C)C)c(=O)c3ccccc32)n1`, the RP-LC retention time turned out to be 1090 s.

`COc1ccc(-c2nnc(COc3ccc(NC(=O)c4ccnc(Cl)c4)cc3)o2)cc1` yielded an RP-LC retention time of 868 s.

`Cn1nc2n(c1=O)CCN(Cc1cn[nH]c1-c1ccc(F)cc1)C2` displayed an RP-LC retention time of 600 s.

Take `CCOC(=O)C1CCN(C(=O)CCC2CCN(c3cc(NC4CC4)ncn3)CC2)CC1`: the RP-LC retention time came to 586 s.

In the case of `O=C(c1ccc(S(=O)(=O)NCc2cccnc2)o1)N1CCN(c2ccccc2F)CC1`, the RP-LC retention time was found to be 624 s.

In turn, `Cc1cccc2c(=O)n(C3CCN(S(=O)(=O)c4ccc(CC(C)C)cc4)CC3)cnc12` displayed an RP-LC retention time of 1230 s.

In turn, `CCn1cc(Br)c(C(=O)Nc2ccc(C(C)=O)cc2)n1` had an RP-LC retention time of 829 s.

As to `O=C(NCCn1nc(-c2cccs2)ccc1=O)c1ccc(=O)n(Cc2ccccc2)n1`, the RP-LC retention time came out at 678 s.

`CN1C(=O)C(CC(=O)Nc2ccccc2)=C2CCCCC21` (centres undefined): the RP-LC retention time turned out to be 758 s.

`CC(C)c1ccc(NC(=O)Cn2nc(C(=O)N3CCCC3)c3ccccc32)cc1` returned an RP-LC retention time of 991 s.

As for `COc1ccc(C2(C(=O)Nc3cc(-c4ccco4)no3)CC2)cc1`, the RP-LC retention time was determined as 1000 s.

`CN(C)C(CNC(=O)C(=O)NCc1ccc2c(c1)OCO2)c1ccsc1` (centres undefined) came in with an RP-LC retention time of 556 s.

In turn, `CCN1CCN(c2c(C(=O)c3ccc(OC)cc3)cnc3cc4c(cc23)OCCO4)CC1` showed an RP-LC retention time of 551 s.

`CCc1ccc(S(=O)(=O)N2CCC(c3nc(C(=O)N4CCCC4)c(C)o3)CC2)cc1` came in with an RP-LC retention time of 1010 s.

With `COc1ccc(C(=O)N2C[C@@H]3C[C@H]2C[C@@H]3NS(=O)(=O)c2ccccc2)cc1OC`, the RP-LC retention time was determined as 723 s.

For the molecule `CC1CCCC(NC(=O)C2CCCN(C(=O)c3cc4sccc4n3C)C2)C1C` (centres undefined), the RP-LC retention time was 991 s.

Turning to `Cc1ccc(N2CCN(S(=O)(=O)c3cc(-c4cc(C)no4)cs3)CC2)c(C)c1`, the RP-LC retention time is 1240 s.

`O=C(C1CCN(c2cnn(Cc3ccccc3)c(=O)c2)CC1)N1CCCCCC1` displayed an RP-LC retention time of 774 s.

`Cn1c(N2CCCC(C(=O)N3CCN(c4ccccn4)CC3)C2)cc(=O)n(C)c1=O` (centres undefined) yielded an RP-LC retention time of 578 s.

Molecule `Cc1ccc(-c2noc(Cn3cnc4c(cnn4-c4ccccc4)c3=O)n2)cc1` displayed an RP-LC retention time of 1090 s.

Consider `CCOC(=O)c1ccc(N2C(=O)Cn3cccc3C2C(=O)NC2CCCCC2C)cc1` (centres undefined), for which the RP-LC retention time turned out to be 994 s.

Regarding `CCCn1c(=O)c(C)nc2cc(-c3noc(-c4ccc(Br)o4)n3)ccc21`, the RP-LC retention time was determined as 1160 s.

In turn, `CN(C)S(=O)(=O)c1ccc(-c2nnc(C(=O)NCCCN3CCCC3=O)o2)cc1` gave an RP-LC retention time of 655 s.

Take `CCOC(=O)N1CCN(C(=O)c2cn(CC(O)c3ccccc3)nn2)CC1` (centres undefined): the RP-LC retention time was 634 s.

`COCCN1C(=O)CCc2cc(NC(=O)C(C)(C)C)ccc21` showed an RP-LC retention time of 707 s.

Regarding `CS(=O)(=O)N1CCCC(C(=O)NC2CCCCC2)CCNC(=O)CC1` (centres undefined), the RP-LC retention time stood at 633 s.

Consider `Cc1ccc(-c2cc3c(=O)n(Cc4noc(CN5CCC(C)CC5)n4)ccn3n2)c(C)c1`, for which the RP-LC retention time stood at 742 s.

Molecule `CCCCCCCC1(C)NC(=O)NC1=O` (centres undefined) gave an RP-LC retention time of 817 s.

Take `Cc1nc(-c2ccc(C(=O)N3CCCc4ccccc43)cc2)no1`: the RP-LC retention time stood at 929 s.

As to `Cc1cccc2c(=O)n(C3CCN(C(=O)Nc4ccc(F)cc4F)CC3)cnc12`, the RP-LC retention time stood at 770 s.

Turning to `CCCCS(=O)(=O)N1CCc2c(c(-c3nnc(-c4ccc(F)cc4)o3)nn2C)C1`, the RP-LC retention time came out at 893 s.

In the case of `COc1ccc(C)cc1NC(=O)C1CCN(C(=O)C(C)(C)C)CC1`, the RP-LC retention time was found to be 784 s.

The molecule `COc1ccccc1Oc1ccc(S(=O)(=O)N2CCCC2)cc1` registered an RP-LC retention time of 914 s.

Consider `CCc1ccc(C2=C(C)C(N3CCC(NC(=O)C(C)(C)CC)CC3)=NS2(=O)=O)cc1`, for which the RP-LC retention time turned out to be 965 s.

`CCc1cccc(NC(=O)N2c3ccccc3CC2c2nc(CCOC)no2)c1` (centres undefined) yielded an RP-LC retention time of 1060 s.

As for `O=C(C1CCCN(c2cnc3nccnc3c2)C1)N1CCC(N2CCCCC2)CC1` (centres undefined), the RP-LC retention time turned out to be 557 s.

Molecule `Cc1ccc(NC(=O)Cn2nc3c(Oc4ccccc4C)nccn3c2=O)c(C)c1` displayed an RP-LC retention time of 873 s.

As to `Cc1cc(N2CCCC2)n2nc(CN(C)Cc3ccccc3)nc2n1`, the RP-LC retention time worked out at 593 s.

`O=S(=O)(c1ccc(F)cc1)N1CCC2(CC1)NCCN=C2NCc1ccccc1F`: the RP-LC retention time came to 692 s.

`O=C(Cc1ccsc1)Nc1cnc(N2CCOCC2)nc1` registered an RP-LC retention time of 686 s.

Turning to `Cc1ccc(C)c(N2CCN(C(=O)C3CCN(S(=O)(=O)c4cn(C)c(C)n4)CC3)CC2)c1`, the RP-LC retention time worked out at 822 s.

In the case of `COCc1cc(=O)n(CC(=O)Nc2ccc(OC)cc2)c(N2CCOCC2)n1`, the RP-LC retention time came out at 755 s.

`COc1cccc(-c2noc(-c3cc(N4CCN(c5ccccn5)CC4)nc4ccccc34)n2)c1OC`: the RP-LC retention time is 841 s.

Regarding `Cc1cc(NC(=O)C(=O)c2ccc[nH]2)ccc1Br`, the RP-LC retention time stood at 1040 s.

For the molecule `Cn1c(N2CCCC(C(=O)NCc3ccc(Cl)cc3)C2)cc(=O)n(C)c1=O` (centres undefined), the RP-LC retention time was 710 s.

The molecule `CC1CN(C(=O)CCC(=O)NC2CCN(Cc3ccccc3)CC2)c2cc(Cl)ccc2O1` (centres undefined) gave an RP-LC retention time of 694 s.

`COc1ccc(N2C(=O)CCS2(=O)=O)cc1S(=O)(=O)N1CCN(c2ccccn2)CC1` yielded an RP-LC retention time of 603 s.

Source of the values: the METLIN SMRT retention time set (Domingo-Almenara et al. 2019).
